{"source": "patent US20200023001A1", "about": "“GlycoFix (Structurally And Functionally Repaired Endothelial Glycocalyx)” (Northeastern University, priority 2018, published 2020)", "test_system": "HS component of RFPEC glycocalyx", "experiment": "HS component thickness and coverage by 10E4 HS immunofluorescence (Example 2)", "format": "cell-based, rat", "description": "RFPEC Culture. A rat fat pad endothelial cell (RFPEC) line^37 was utilized, originally isolated from rat epididymal fat pads by Dr. Mia Thi of Albert Einstein College of Medicine (Bronx, N.Y., USA). RFPECs were selected for their ability to naturally express a robust glycocalyx.^38 These ECs were cultured in tissue culture flasks at 37° C. and 5% CO2 in a humidified environment with Dulbecco's Modified Eagle's Medium (DMEM) supplemented with 10% fetal bovine serum (FBS) and 1% penicillin-streptomycin, all purchased from Thermo Fisher Scientific (Waltham, Mass., USA). For 3-(4,5-dimethylthiazol-2-yl)-5-(3-carboxymethoxyphenyl)-2-(4-sulfophenyl)-2H-tetrazolium (MTS) assays (Sigma-Aldrich Co., St Louis, Mo., USA), RFPECs were seeded at 3.7×10^4 cells/cm^2 in tissue culture-treated, 96-well plates (Falcon; Thermo Fisher Scientific) and imaged on a SpectraMax M3 plate reader to show cell viability and metabolic activity. For confocal imaging, RFPECs were seeded onto 12-mm diameter round glass cover slips (Thermo Fisher Scientific) at 1×10^4 cells/cm^2 in tissue culture-treated six-well plates (Falcon; Thermo Fisher Scientific). In both cases, the cells were allowed to grow for 48-60 hours to full confluence before starting the experiment.\nRFPEC glycocalyx treatments. For control glycocalyx conditions, RFPEC cultures were grown in DMEM with 10% FBS and 1% penicillin-streptomycin. To generate dysfunctional glycocalyx conditions, the regular culture media of other RFPEC cultures was replaced with two variations of the modified media. For the collapsed glycocalyx configuration, the cells were grown in low serum media that consisted of DMEM with 1% penicillin-streptomycin and only 2% FBS.^1 For the degraded glycocalyx configuration, cultures were pretreated with DMEM/10^% FBS/1% penicillin-streptomycin containing a 2.5×10^−6 IU heparinase III (Hep III) (IBEX Pharmaceutical, Montreal, QC, Canada) enzyme for 2 hours, selectively degrading the HS glycosaminoglycans of the glycocalyx. To simulate a repaired glycocalyx state, the media containing Hep III was replaced with exogenous HS (Celsus Laboratories, Cincinnati, Ohio, USA) dissolved in DMEM/10% FBS/1% penicillin-streptomycin at 59 μg/mL. All RFPEC cultures, including those with untreated, collapsed, degraded, or repaired glycocalyx configurations, were exposed to 550 μg/mL of lyophilized and ultraviolet-sterilized PEG-AuNP during the 16-hour treatment time. Afterward, the free-floating particles were gently washed out before fixation to ensure that only the AuNP entrapped within the glycocalyx would be imaged. The red fluorescence detected from conjugated Alexa Fluor 647 was attributed to AuNP within the RFPEC monolayers (details are given in the “Confocal imaging and analysis” section).\nImmunostaining. […]", "key": {"[1]": {"settings": "RFPEC, Hep III 2 h then 16 h, with or without 59 μg/mL HS"}}, "note": "Several values for one entry are separate records, joined by “and”; a condition that tells them apart may be missing. Equal entries are not always repeated."}
{"substance": "heparan sulfate [HS]", "values": [{"measurement": "HS coverage of RFPEC, result in words (FIG. 10F legend)", "result": "recovered"}, {"measurement": "HS coverage as % of the baseline measurements", "setting": "Hep III, Hep III + 59 μg/mL HS", "result": 44, "unit": "%"}, {"measurement": "HS component thickness", "setting": "[1]", "result": "1.2 μm and 1.21±0.31 μm"}, {"measurement": "HS coverage of RFPEC surface", "setting": "[1]", "result": 33.1, "unit": "%+3.7%"}]}
